Reference: PubChem BioAssay (NCI)
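Dose response: 5 concentrations. Exposure: 48 h. Format: 96-well plates. Endpoint: linear interpolation; highest concentration if not reached. GI50 is the concentration that inhibits growth by half. TGI is the concentration that stops growth completely.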

Tests used:
Experiment in all cases: NCI tumour cell line growth inhibition, 48 h
HOP-92 NSCLC = test system: HOP-92 NSCLC
786-0 renal = test system: 786-0 renal
OVCAR-4 ovarian = test system: OVCAR-4 ovarian
SR leukemia = test system: SR leukemia
SF-539 CNS = test system: SF-539 CNS
SK-OV-3 ovarian = test system: SK-OV-3 ovarian
KM12 colon = test system: KM12 colon
EKVX NSCLC = test system: EKVX NSCLC
CCRF-CEM leukemia = test system: CCRF-CEM leukemia
TK-10 renal = test system: TK-10 renal
T-47D breast = test system: T-47D breast
ACHN renal = test system: ACHN renal
HCT-15 colon = test system: HCT-15 colon
SNB-19 CNS = test system: SNB-19 CNS
HL-60(TB) leukemia = test system: HL-60(TB) leukemia
OVCAR-8 ovarian = test system: OVCAR-8 ovarian
MCF7 breast = test system: MCF7 breast
SK-MEL-2 melanoma = test system: SK-MEL-2 melanoma
MOLT-4 leukemia = test system: MOLT-4 leukemia
SF-268 CNS = test system: SF-268 CNS
OVCAR-5 ovarian = test system: OVCAR-5 ovarian
NCI-H522 lung = test system: NCI-H522 lung
NCI-H226 lung = test system: NCI-H226 lung
HS 578T breast = test system: HS 578T breast
UACC-62 melanoma = test system: UACC-62 melanoma
RXF 393 renal = test system: RXF 393 renal
A549 NSCLC = test system: A549 NSCLC
SK-MEL-5 melanoma = test system: SK-MEL-5 melanoma
RPMI-8226 leukemia = test system: RPMI-8226 leukemia
IGROV1 ovarian = test system: IGROV1 ovarian
HT29 colon = test system: HT29 colon
SW-620 colon = test system: SW-620 colon
PC-3 prostate = test system: PC-3 prostate
NCI-H23 lung = test system: NCI-H23 lung
UO-31 renal = test system: UO-31 renal
HOP-62 NSCLC = test system: HOP-62 NSCLC
HCT-116 colon = test system: HCT-116 colon
SNB-75 CNS = test system: SNB-75 CNS
U251 CNS = test system: U251 CNS
HCC-2998 colon = test system: HCC-2998 colon
LOX IMVI melanoma = test system: LOX IMVI melanoma
SN12C renal = test system: SN12C renal
COLO 205 colon = test system: COLO 205 colon
OVCAR-3 ovarian = test system: OVCAR-3 ovarian
NCI-H460 lung = test system: NCI-H460 lung
SF-295 CNS = test system: SF-295 CNS
DU-145 prostate = test system: DU-145 prostate
A498 renal = test system: A498 renal
CAKI-1 renal = test system: CAKI-1 renal
BT-549 breast = test system: BT-549 breast
MALME-3M melanoma = test system: MALME-3M melanoma
MDA-MB-435 = test system: MDA-MB-435
K-562 leukemia = test system: K-562 leukemia
SK-MEL-28 melanoma = test system: SK-MEL-28 melanoma
MDA-MB-231 breast = test system: MDA-MB-231 breast
NCI/ADR-RES ovarian = test system: NCI/ADR-RES ovarian
UACC-257 melanoma = test system: UACC-257 melanoma

Structure (SMILES): COc1ccccc1Nc1cc(O)c2c(=O)cc(-c3ccccc3)oc2c1
- GI50 (HOP-92 NSCLC): 3.76 µM
- TGI (HOP-92 NSCLC): 23.7 µM
- GI50 (786-0 renal): 5.15 µM
- TGI (786-0 renal): 27 µM
- GI50 (OVCAR-4 ovarian): 4.49 µM
- TGI (OVCAR-4 ovarian): 47.8 µM
- GI50 (SR leukemia): 0.529 µM
- TGI (SR leukemia): > 100 µM
- GI50 (SF-539 CNS): 2.73 µM
- TGI (SF-539 CNS): 10.4 µM
- GI50 (SK-OV-3 ovarian): 3.57 µM
- TGI (SK-OV-3 ovarian): 17.9 µM
- GI50 (KM12 colon): 2.76 µM
- TGI (KM12 colon): 55.2 µM
- GI50 (EKVX NSCLC): 4.83 µM
- TGI (EKVX NSCLC): 56 µM
- GI50 (CCRF-CEM leukemia): 3.57 µM
- TGI (CCRF-CEM leukemia): > 100 µM
- GI50 (TK-10 renal): 10.4 µM
- TGI (TK-10 renal): 28.6 µM
- GI50 (T-47D breast): 4.36 µM
- TGI (T-47D breast): > 100 µM
- GI50 (ACHN renal): 3.38 µM
- TGI (ACHN renal): 13 µM
- GI50 (HCT-15 colon): 1.65 µM
- TGI (HCT-15 colon): > 100 µM
- GI50 (SNB-19 CNS): 2.99 µM
- TGI (SNB-19 CNS): 15.7 µM
- GI50 (HL-60(TB) leukemia): 2.79 µM
- TGI (HL-60(TB) leukemia): 34.9 µM
- GI50 (OVCAR-8 ovarian): 4.65 µM
- TGI (OVCAR-8 ovarian): > 100 µM
- GI50 (MCF7 breast): 1.63 µM
- TGI (MCF7 breast): > 100 µM
- GI50 (SK-MEL-2 melanoma): 5.62 µM
- TGI (SK-MEL-2 melanoma): 34.2 µM
- GI50 (MOLT-4 leukemia): 4.08 µM
- TGI (MOLT-4 leukemia): > 100 µM
- GI50 (SF-268 CNS): 4.71 µM
- TGI (SF-268 CNS): 48.2 µM
- GI50 (OVCAR-5 ovarian): 4.82 µM
- TGI (OVCAR-5 ovarian): 27.3 µM
- GI50 (NCI-H522 lung): 2.67 µM
- TGI (NCI-H522 lung): 27.1 µM
- GI50 (NCI-H226 lung): 4.38 µM
- TGI (NCI-H226 lung): 28.8 µM
- GI50 (HS 578T breast): 3.61 µM
- TGI (HS 578T breast): 32.6 µM
- GI50 (UACC-62 melanoma): 2.39 µM
- TGI (UACC-62 melanoma): 12.8 µM
- GI50 (RXF 393 renal): 1.74 µM
- TGI (RXF 393 renal): 5.34 µM
- GI50 (A549 NSCLC): 5.16 µM
- TGI (A549 NSCLC): > 100 µM
- GI50 (SK-MEL-5 melanoma): 3 µM
- TGI (SK-MEL-5 melanoma): 9.58 µM
- GI50 (RPMI-8226 leukemia): 4.51 µM
- TGI (RPMI-8226 leukemia): > 100 µM
- GI50 (IGROV1 ovarian): 2.98 µM
- TGI (IGROV1 ovarian): 18.5 µM
- GI50 (HT29 colon): 3.64 µM
- TGI (HT29 colon): > 100 µM
- GI50 (SW-620 colon): 2.5 µM
- TGI (SW-620 colon): > 100 µM
- GI50 (PC-3 prostate): 5.13 µM
- TGI (PC-3 prostate): 41.6 µM
- GI50 (NCI-H23 lung): 4.22 µM
- TGI (NCI-H23 lung): 52.6 µM
- GI50 (UO-31 renal): 3.57 µM
- TGI (UO-31 renal): 21.5 µM
- GI50 (HOP-62 NSCLC): 3.55 µM
- TGI (HOP-62 NSCLC): > 100 µM
- GI50 (HCT-116 colon): 3.31 µM
- TGI (HCT-116 colon): > 100 µM
- GI50 (SNB-75 CNS): 2.39 µM
- TGI (SNB-75 CNS): 8.5 µM
- GI50 (U251 CNS): 3.63 µM
- TGI (U251 CNS): > 100 µM
- GI50 (HCC-2998 colon): 6.07 µM
- TGI (HCC-2998 colon): > 100 µM
- GI50 (LOX IMVI melanoma): 3.41 µM
- TGI (LOX IMVI melanoma): > 100 µM
- GI50 (SN12C renal): 3.5 µM
- TGI (SN12C renal): 17.6 µM
- GI50 (COLO 205 colon): 9.92 µM
- TGI (COLO 205 colon): > 100 µM
- GI50 (OVCAR-3 ovarian): 2.05 µM
- TGI (OVCAR-3 ovarian): 5.2 µM
- GI50 (NCI-H460 lung): 3.37 µM
- TGI (NCI-H460 lung): 12 µM
- GI50 (SF-295 CNS): 2.98 µM
- TGI (SF-295 CNS): 13.2 µM
- GI50 (DU-145 prostate): 4.35 µM
- TGI (DU-145 prostate): 16.4 µM
- GI50 (A498 renal): 3.08 µM
- TGI (A498 renal): 13.9 µM
- GI50 (CAKI-1 renal): 4.24 µM
- TGI (CAKI-1 renal): 20.3 µM
- GI50 (BT-549 breast): 4.96 µM
- TGI (BT-549 breast): 37.2 µM
- GI50 (MALME-3M melanoma): 2.13 µM
- TGI (MALME-3M melanoma): 11.9 µM
- GI50 (MDA-MB-435): 0.36 µM
- TGI (MDA-MB-435): 2.03 µM
- GI50 (K-562 leukemia): 0.59 µM
- TGI (K-562 leukemia): > 100 µM
- GI50 (SK-MEL-28 melanoma): 3.64 µM
- TGI (SK-MEL-28 melanoma): 25.8 µM
- GI50 (MDA-MB-231 breast): 3.96 µM
- TGI (MDA-MB-231 breast): 18.4 µM
- GI50 (NCI/ADR-RES ovarian): 1.99 µM
- TGI (NCI/ADR-RES ovarian): 18 µM
- GI50 (UACC-257 melanoma): 6.72 µM
- TGI (UACC-257 melanoma): 63.5 µM
